The experiment addresses T1, human CXCR3 (N-delta 4) (Homo sapiens, UniProt P49682).
T1 construct: CD8 leader; Flag tag; expressed in transfected cells; membrane preparation
T1 sequence (P49682 5-368 limits assumed): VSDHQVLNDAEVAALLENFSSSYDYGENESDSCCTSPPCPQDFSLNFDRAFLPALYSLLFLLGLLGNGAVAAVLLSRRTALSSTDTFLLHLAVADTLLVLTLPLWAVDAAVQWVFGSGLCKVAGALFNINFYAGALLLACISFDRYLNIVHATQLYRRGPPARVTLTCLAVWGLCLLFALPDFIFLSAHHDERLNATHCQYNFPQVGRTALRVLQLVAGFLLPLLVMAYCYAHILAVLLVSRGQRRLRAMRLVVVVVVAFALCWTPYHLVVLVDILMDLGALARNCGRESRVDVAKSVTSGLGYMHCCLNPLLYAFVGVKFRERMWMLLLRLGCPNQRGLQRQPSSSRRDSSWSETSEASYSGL
The experiment is described as follows: Human CXCR3 (N-delta 4) scintillation proximity binding assay ([125I] IP-10 displacement). An excerpt: The inventive compounds can readily be evaluated to determine activity at The CXCR3 receptors by known methods, such as, for example, Development of Human CXCR3 (N-delta 4) Binding Assay.
Cloning and Expression of Human CXCR3 (N-Delta 4):
The DNA encoding human CXCR3 was cloned by PCR using human genomic DNA (Promega, Madison, Wis.) as a template. The PCR primers were designed based on the published sequence of human orphan receptor GPR9 (1) with incorporated restriction sites, a Kozak consensus sequence, CD8 leader and Flag tag. The PCR product was subcloned into the mammalian expression vector pME18Sneo, a derivative of the SR-alpha expression vector (designated as pME18Sneo-hCXCR3 (N-delta 4).
IL-3-dependent mouse pro-B cells Ba/F3 were transfected by electroporation in 0.4 ml Dulbecco's PBS containing 4×10^6 cells with 20 μg of pME18Sneo-hCXCR3 (N-delta 4) plasmid DNA. Cells were pulsed at 400 Volts, 100 OHMs, 960 μFd. The transfected cells were under selection with 1 mg/ml G418 (Life Technologies, Gaithersburg, Md.). G418-resistant Ba/F3 clones were screened for CXCR3 expression by specific binding of [^125I] IP-10 (NEN Life Science Products, Boston, Mass.).
Preparation of Ba/F3-hCXCR3 (N-Delta 4) Membranes
Ba/F3 cells expressing human CXCR3 (N-delta 4) were pelleted and resuspended in the lysis buffer containing 10 mM HEPES, pH 7.5 and Complete® protease inhibitors (1 tablet per 100 ml) (Boehringer Mannheim, Indianapolis, Ind.) at a cell density of 20×10^6 cells per ml. After 5 minutes incubation on ice, cells were transferred to 4639 cell disruption bomb (Parr Instrument, Moline, Ill.) and applied with 1,500 psi of nitrogen for 30 minutes on ice. Large cellular debris was removed by centrifugation at 1,000×g. Cell membrane in the supernatant was sedimented at 100,000×g. The membrane was resuspended in the lysis buffer supplemented with 10% sucrose and stored at −80° C. Total protein concentration of the membrane was determined by BCA method from Pierce (Rockford, Ill.).
Human CXCR3 (N-Delta 4) Scintillation Proximity Assay (SPA)
For each assay point, 2 μg of membrane was preincubated for 1 hr with 300 μg wheat germ agglutinin (WGA) coated SPA beads (Amersham, Arlington Heights, Ill.) in the binding buffer (50 mM HEPES, 1 mM CaCl2, 5 mM MgCl2, 125 mM NaCl, 0.002% NaN3, 1.0% BSA) at room temperature. The beads were spun down, washed once, resuspended in the binding buffer and transferred to a 96-well Isoplate (Wallac, Gaithersburg, Md.). 25 pM of [^125I] IP-10 with tested compounds in a series of titration were added to start the reaction. After 3 hr reaction at room temperature, the amount of [^125I]; IP-10 bound to the SPA beads was determined with a Wallac 1450 Microbeta counter.
On the technique in general: Scintillation proximity formats need no separation of bound from free tracer.

Where [1] appears, read: human CXCR3, Table 1, read-out: Ki rating.
The mark [2] stands for this setting: Human CXCR3, Table 2, read-out: Ki.

Drawing on patent US7786124B2, “Heterocyclic substituted pyridine compounds with CXCR3 antagonist activity” (Schering Corporation, priority 2006, dated 2010), this text covers Ki for 15 compounds.

pKi: −log10 of the molar value. Read-outs that look alike come from different tables or passages of the source. Bounds are passed on as bounds.

`CCNc1nnc(-c2ccc(N3CCN(C4CCN(Cc5ccc(Cl)cc5)CC4)[C@@H](CC)C3)c(C)n2)o1` [Compound 1]: the pKi is over 7.60 under setting [1] and 9.70 (human CXCR3, read-out: Ki).

Consider `CCNc1nnc(-c2ccc(N3C[C@H](CC)N(C4CCN(Cc5ccc(Cl)cc5)CC4)C[C@H]3C)c(C)n2)o1` [Compound 2], for which the pKi reads like this: under setting [2], 9.40; under setting [1], over 7.60.

For `CC[C@H]1CN(c2ccc(-c3nnc(N)o3)nc2C)CCN1C1CCN(Cc2ccc(OC(F)(F)F)cc2)CC1` [Compound 3], the negative logarithm of the Ki (pKi) under setting [2] was 9.30 and the negative-log Ki (pKi) under setting [1] was over 7.60.

Regarding `CCNc1nnc(-c2ccc(N3CCN(C4CCN(C(=O)c5ccc(Cl)cc5)CC4)[C@@H](CC)C3)c(C)n2)o1` [Compound 4], the negative-log Ki (pKi) under setting [1] is over 7.60.

As to `CCNc1nnc(-c2ccc(N3CCN(C4CCN(C(=O)c5ccc(Cl)c(F)c5)CC4)[C@@H](CC)C3)c(C)n2)o1` [Compound 5], the pKi under setting [1] was over 7.60.

Consider `CC[C@H]1CN(c2ccc(-c3nnc[nH]3)nc2C)CCN1C1CCN(C(=O)c2ccc(Cl)c(F)c2)CC1` [Compound 6], for which the negative logarithm of the Ki (pKi) under setting [1] is over 7.60.

With `CC[C@H]1CN(c2ccc(-c3nnc(N)o3)nc2C)CCN1C1CCN(C(=O)c2ccc(Cl)c(F)c2)CC1` [Compound 7], under setting [1], the negative logarithm of the Ki (pKi) is over 7.60.

`CCNc1nnc(-c2ccc(N3CCN(C4CCN(C(=O)c5ccc(F)c(F)c5)CC4)[C@@H](CC)C3)c(C)n2)o1` [Compound 8]: the pKi under setting [1] was over 7.60.

Consider `CC[C@H]1CN(c2ccc(-c3nnc(N)o3)nc2C)CCN1C1CCN(C(=O)c2ccc(F)c(F)c2)CC1` [Compound 9], for which the negative logarithm of the Ki (pKi) under setting [1] is over 7.60.

`CCNc1nnc(-c2ccc(N3C[C@H](CC)N(C4CCN(C(=O)c5ccc(Cl)c(F)c5)CC4)C[C@H]3C)c(C)n2)o1` [Compound 10]: the pKi under setting [1] was 7.00 to 7.60.

Take `CCNc1nnc(-c2ccc(N3C[C@H](CC)N(C4CCN(C(=O)c5ccc(Cl)cc5)CC4)C[C@H]3C)c(C)n2)o1` [Compound 11]: under setting [1], the pKi is 7.00 to 7.60.

With `CC[C@H]1CN(c2ccc(-c3nnc(N)o3)nc2C)[C@H](C)CN1C1CCN(C(=O)c2ccc(Cl)cc2)CC1` [Compound 12], the pKi under setting [1] was 7.00 to 7.60.

`CC[C@H]1CN(c2ccc(-c3nnc(N)o3)nc2C)[C@H](C)CN1C1CCN(C(=O)c2ccc(Cl)c(F)c2)CC1` [Compound 13]: the pKi under setting [1] is 7.00 to 7.60.

For the compound `CC[C@H]1CN(c2ccc(-c3nnc(N)o3)nc2C)CCN1C1CCN(Cc2ccc(Cl)cc2)CC1` [Compound 14], the pKi runs as follows: under setting [2], 9.52; under setting [1], over 7.60.

On to `CC[C@H]1CN(c2ccc(-c3nnc(N)o3)nc2C)CCN1C1CCN(C(=O)c2ccc(Cl)cc2)CC1` [Compound 15], for which the pKi reads like this: under setting [2], 8.62; under setting [1], over 7.60.

Broadly, the pKi is the negative decadic logarithm of the Ki, by convention in mol/L.
